Data on 23 compounds can be found in patent publication US9274101B2 (BIOLOG, Inc., priority 2001, dated 2016).

Assay [1] has as its system E. coli MG1655. Type of assay: cell-based, Escherichia coli.
Assay [2] relates to E. coli MG1655. The assay is classed as cell-based, Escherichia coli. This is another data set of the same source.
Another assay has as its system HepG2 cells. Briefly: HepG2 cells on flat bottom plastic wells, energy sources at a range of concentrations. The assay is classed as cell-based, human. The following applies: Homo sapiens, HepG2, 72 h, read-out: HepG2 Cells Responses After 72 hours in Culture and a 4 hour Color Development Period. The procedure:
In this Example, methods for testing adherent cells for their ability to use multiple carbon sources are described. The human hepatocellular carcinoma cell line known as HepG2 (Knowles et al., Science, 209:497-499 [1980]) was chosen for this experiment. However, this application is not intended to be limited to the use of HepG2 cells, hepatocytes, carcinoma cells or even human cells.
HepG2 cells were grown in Falcon tissue culture flasks with vented tops. The culture medium used was Minimal Essential medium (MEM, Invitrogen 11095) with 1 g/L glucose, 2 mM L-glutamine, 2.2 g/L sodium bicarbonate, 10 mg/L phenol red, and supplemented with 0.1 mM Nonessential Amino Acids, 1 mM sodium pyruvate, 50 U/mL penicillin, 50 μg/mL streptomycin, and 10% (v/v) heat inactivated fetal bovine serum (HI FBS, Invitrogen 16140). The cells were seeded at 2×10^4/cm^2 and used 3 days after initiation of culture. During all incubations, the cells were kept in an atmosphere of 5% CO2, 90-100% humidity, and 37° C. Cells were harvested by trypsinization for 3 minutes in 0.25% trypsin-1 mM EDTA and resuspended in an equal volume of culture medium. A viable cell count was obtained by trypan blue exclusion and an appropriate volume of the cell suspension (to have 33% more viable cells than was sufficient for the experiment) was placed in a polypropylene centrifuge tube. Cells were pelleted by centrifugation at 350×g for 10 minutes at room temperature, resuspended in Dulbecco's Phosphate Buffered Saline (D-PBS, Invitrogen 14040) and centrifuged a second time. Cells were then resuspended to two-thirds the final volume needed in Dulbecco' ? s Modified Eagle's Medium (DME, Sigma D5030) containing 10% HI FBS and penicillin-streptomycin but without glucose, L-glutamine, sodium pyruvate, and phenol red. An aliquot was counted by trypan blue exclusion and the cell density was adjusted to 1.28×10^5/mL. Cells were plated in 100 μL/well in wells of standard, 96-well plates (4×10^4 cells/cm^2) and allowed to adhere overnight prior to addition of test chemicals.
For assay, the culture medium was aspirated, the wells were washed once with D-PBS and 170 μL of DME were added to each well, followed by 30 μL of the appropriate dilution of each test energy source. Stocks of 133 mM of each test chemical were prepared in tissue culture grade water, sterile filtered, and dilutions were prepared in a master plate so that, upon dilution into a regular 96-well MICROPLATE a total well volume of 200 μL, the final concentrations would be 0.033 to 20 mM. Negative control wells received 30 μL of tissue culture grade water. For each plate containing energy sources and cells, a second, control plate containing only energy sources was prepared. Plates were incubated at 5% CO2, 90-100% humidity, and 37° C. for 48 to 72 hours prior to addition of the MTS/PMS colorometric reagent (10 μL/well). The color formed in each well 4-24 hours after addition of the calorimetric reagent, was measured with a plate reader at 490 nm with a reference wavelength of 650 nm. OD values from the control plate were subtracted from the OD values obtained with cells prior to normalizing the data to % negative control (cells without added energy source).

In assay [3] the test system is Undifferentiated HL-60 cells. As to the kind of experiment: Energy use by undifferentiated HL-60 cells. The assay is classed as cell-based, human. The following applies: Homo sapiens, HL-60, 24 h, read-out: Energy Use by Undifferentiated HL-60 Cells.
Assay [4] concerns DMSO-differentiated HL-60 cells. Briefly: Energy use by DMSO-differentiated HL-60 cells. The assay is classed as cell-based, human. The following applies: Homo sapiens, HL-60, 24 h, read-out: Energy Use by DMSO-Differentiated HL-60 Cells. On the procedure:
In this Example, methods for testing in vitro-differentiated cells for their ability to use multiple energy sources are described. Prior to differentiation, HL-60 cells were cultured as described in Example 27. DMSO-induced differentiation (Odani et al., Res. Commun. Mol. Pathol. Pharmacol. 108:381-391 [2000]; and Yamaguchi et al., Biol. Pharm. Bull. 20:943-947 [1997]) was accomplished by incubation of the cells in the presence of 1.25% DMSO for 3 days.
After washing, HL-60 cells were resuspended in DME-R. An aliquot of the cell suspension was counted by trypan blue exclusion and the cell density was adjusted to 6.67×10^5/mL. Fifty μL of DME-R were added to each well of the appropriate number of half area, 96-well plates, followed by 25 μL of the appropriate dilution of each test energy source. Stocks of 133 mM of each test chemical were prepared in tissue culture grade water, sterile filtered, and dilutions were prepared in a master plate so that, upon dilution into a half-area 96-well microtiter plate to a total well volume of 150 μL, the final concentrations would be 0.033 to 20 mM. Negative control wells received 25 μL of tissue culture grade water. The cells were plated at a volume of 75 μL/well, giving a final cell density of 5×10^4/well. For each plate containing energy sources and cells, a second, control plate containing only energy sources was prepared with the same total volume of liquid (148 μL/well). Plates were incubated at 5% CO2, 90-100% humidity, and 37° C. for 24 hours prior to addition of the MTS/MPMS calorimetric reagent (7.5 μL/well). The color formed in each well 24 hours after addition of the colorimetric reagent, was measured with a plate reader at 490 nm with a reference wavelength of 650 nm. OD values from the control plate were subtracted from the OD values obtained with cells prior to normalizing the data to % negative control (cells without added energy source).

The test system of the next assay is HL-60 cells. Briefly: HL-60 responses to selected compounds at a range of concentrations. The assay is classed as cell-based, human. On the procedure:
In this Example, methods for testing unattached cells for their ability to use various concentrations of selected carbon sources are described. The carbon sources used in this Example were identified by the methods disclosed in Example 27. Similarly, HL-60 cells were cultured as described in Example 27.
After washing, HL-60 cells were resuspended in DME-R. An aliquot of the cell suspension was counted by trypan blue exclusion and the cell density was adjusted to 6.67×10^5/mL. Fifty μL of DME-R were added to each well of the appropriate number of half area, 96-well plates, followed by 23 μL of the appropriate dilution of each test energy source. Stocks of 133 mM of each test chemical were prepared in tissue culture grade water, sterile filtered, and dilutions were prepared in a master plate so that, upon dilution in a total volume of 150 μL, the final concentrations would be 0.033 to 20 mM. Negative control wells received 23 μL of tissue culture grade water. The cells were plated at a volume of 75 μL/well, giving a final cell density of 5×10^4/well. For each plate containing energy sources and cells, a second, control plate containing only energy sources was prepared. Plates were incubated at 5% CO2, 90-100% humidity, and 37° C. for 24 hours prior to addition of the MTS/MPMS colorometric reagent (7.5 μL/well). The color formed in each well after an additional 24 hour incubation period, was measured on a plate reader at 490 nm with a reference wavelength of 650 nm. OD values from the control plate were subtracted from the OD values obtained with cells prior to normalizing the data to % negative control (cells without added energy source).

Setting [5] is: Homo sapiens, HL-60, read-out: HL-60 Cell Responses to Selected Compounds from PM1 and PM2.

For the compound `N[C@@H](COP(=O)(O)O)C(=O)O` [O-phospho-L-serine], in the assay on E. coli MG1655 [1], the “suitability as phosphorus source (growth, purple color)” value (“suitability as phosphorus source” for short) is reported as “positive”.
Same read-out and setting: then `O=C(O)COP(=O)(O)O` [phosphoglycolic acid], with “positive”; and `NCCP(=O)(O)O` [2-aminoethyl phosphonate], with “weak positive”; and `N[C@H](Cc1ccc(OP(=O)(O)O)cc1)C(=O)O` [O-phospho-D-tyrosine], with “positive”.
Take `CS(=O)(=O)CC[C@H](N)C(=O)O` [L-methionine sulfone]: the “suitability as sulfur source (growth, purple color)” value (shortened to “suitability as sulfur source”) in the assay on E. coli MG1655 [1] is “not suitable”.
`CSC[C@H](N)C(=O)O` [S-methyl-L-cysteine]: in the assay with E. coli MG1655 [1], the “suitability as sulfur source” value was “weak positive”.
As for `Cc1cn([C@H]2C[C@H](O)[C@@H](COP(=O)(O)O)O2)c(=O)[nH]c1=O` [thymidine 5′-monophosphate], the “suitability as phosphorus source” value with E. coli MG1655 [1] is “positive”.
Same read-out and setting: then `O=P(O)(O)OP(=O)(O)OP(=O)(O)O` [tripolyphosphate], with “not suitable”.
On to `O=C(O)C(CO)OP(=O)(O)O` (stereo not drawn) [2-phosphoglyceric acid], for which the “suitability as phosphorus source” value in the assay with E. coli MG1655 [1] is given as “positive”.
Turning to `Nc1ccn([C@@H]2O[C@H](CO)C3OP(=O)(O)O[C@@H]32)c(=O)n1` (stereo partly drawn) [cytidine 2′:3′-cyclic monophosphate], the “suitability as phosphorus source” value in the assay on E. coli MG1655 [1] was “positive”.
Same read-out and setting: then `O=c1ccn([C@@H]2O[C@@H]3COP(=O)(O)O[C@H]3[C@H]2O)c(=O)[nH]1` [uridine 3′:5′-cyclic monophosphate], with “not suitable”; and `Nc1nc2c(ncn2[C@@H]2O[C@H](CO)[C@@H](OP(=O)(O)O)[C@H]2O)c(=O)[nH]1` [guanosine 3′-monophosphate], with “positive”.
Turning to `CSCCC(NC(C)=O)C(=O)O` (racemic) [N-acetyl-DL-methionine], in the assay on E. coli MG1655 [1], the “suitability as sulfur source” value is on record as “positive”.
Take `Cc1cn([C@H]2C[C@H](OP(=O)(O)O)[C@@H](CO)O2)c(=O)[nH]c1=O` [thyrnidine 3′-monophosphate]: the “suitability as phosphorus source” value in the assay with E. coli MG1655 [1] is listed as “positive”.
With `OP(O)(=S)S` [dithiophosphate], in the assay with E. coli MG1655 [1], the “suitability as phosphorus source” value is recorded as “positive” and the “suitability as sulfur source” value is on record as “positive”.
On to `O=[N+]([O-])c1ccc(OP(=O)(O)O)cc1` [nitrophenyl phosphate], for which the “suitability as phosphorus source” value with E. coli MG1655 [1] was “not suitable”.
Consider `N[C@@H](CCSC[C@H](N)C(=O)O)C(=O)O` [cystathionine], for which the “suitability as sulfur source” value in the assay on E. coli MG1655 [1] is “positive”.
For `O=C(O)[C@H](O)[C@@H](O)[C@H](O)[C@H](O)COP(=O)(O)O` [6-phosphogluconic acid], the “suitability as phosphorus source” value in the assay on E. coli MG1655 [1] was “positive”.
On to `O=C(O)CS` [thioglycolic acid], for which, in the assay with E. coli MG1655 [1], the “suitability as sulfur source” value is on record as “not suitable”.
Take `N=C(N)NCCC[C@H](N)C(=O)O` [L-arginine]: the “suitability as nitrogen source (growth, purple color)” value with E. coli MG1655 [2] is reported as “positive”. Besides, in the assay with HepG2 cells, the activity at 30 µM was 127%, the activity at 100 µM amounted to 144%, the activity at 330 µM is 165% and the activity at 1000 µM was found to be 142%. In the assay on HepG2 cells, the activity at 3300 µM is 154%, the activity at 10000 µM is 119%, the activity at 15000 µM was 90.8% and the activity at 20000 µM turned out to be 60.3%. Further, in assay [3], the activity at 30 µM worked out at 124%, the activity at 100 µM stood at 118%, the activity at 330 µM was 114% and the activity at 1000 µM was determined as 109%. Moreover, in assay [3], the activity at 3300 µM amounted to 115%, the activity at 10000 µM was 132%, the activity at 15000 µM was determined as 140% and the activity at 20000 µM came out at 126%. Further, in assay [4], the activity at 30 µM was 106%, the activity at 100 µM stood at 103%, the activity at 330 µM turned out to be 122% and the activity at 1000 µM stood at 126%. In addition, in assay [4], the activity at 3300 µM was found to be 123%, the activity at 10000 µM was 132%, the activity at 15000 µM was determined as 119% and the activity at 20000 µM amounted to 93.4%. For the same compound, the response in words entry with HL-60 cells is reported as “strongly utilized, even at very low concentrations”. In addition, in the assay with HL-60 cells (setting [5]), the activity at 30 µM came to 134%, the activity at 100 µM was found to be 138%, the activity at 330 µM amounted to 131% and the activity at 1000 µM turned out to be 138%. Also, in the assay on HL-60 cells (setting [5]), the activity at 3300 µM worked out at 132%, the activity at 10000 µM was 128%, the activity at 15000 µM came to 108% and the activity at 20000 µM turned out to be 109%.
As to `N[C@@H](CS(=O)(=O)O)C(=O)O` [L-cysteic acid], in the assay on E. coli MG1655 [1], the “suitability as sulfur source” value was “positive”.
For the compound `O=c1ccn([C@@H]2O[C@H](CO)[C@H]3OP(=O)(O)O[C@H]32)c(=O)[nH]1` [uridine 2′:3′-cyclic monophosphate], the “suitability as phosphorus source” value in the assay with E. coli MG1655 [1] is listed as “positive”.
As for `C[S+]([O-])CC[C@H](N)C(=O)O` (stereo partly drawn) [L-methionine sulfoxide], the “suitability as sulfur source” value with E. coli MG1655 [1] was “positive”.
